Measured values reported in PubChem BioAssay (NCI).
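1) Cells in 96-well plates. 2) Compound, 48 h, 5 concentrations. 3) Linear interpolation between surrounding doses. 4) Unreached endpoint = highest concentration. TGI: concentration producing complete growth inhibition.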

What was measured:
Assay in all cases: DTP human tumour cell line panel, 48 h
HL-60(TB) leukemia = tested on: HL-60(TB) leukemia
K-562 leukemia = tested on: K-562 leukemia
LOX IMVI melanoma = tested on: LOX IMVI melanoma
NCI-H460 lung = tested on: NCI-H460 lung
OVCAR-8 ovarian = tested on: OVCAR-8 ovarian
SF-295 CNS = tested on: SF-295 CNS
TK-10 renal = tested on: TK-10 renal
UACC-257 melanoma = tested on: UACC-257 melanoma
UO-31 renal = tested on: UO-31 renal

## Cc1ccc(Nc2nc(C)c(C(/C=C/c3ccc(/C=C/C(=N/NC(=O)C[n+]4ccccc4)c4sc(Nc5ccc(C)cc5[N+](=O)[O-])nc4C)cc3)=N\NC(=O)C[n+]3ccccc3)s2)c([N+](=O)[O-])c1
HL-60(TB) leukemia
  TGI: > 100 µM
K-562 leukemia
  TGI: > 100 µM
LOX IMVI melanoma
  TGI: > 100 µM
NCI-H460 lung
  TGI: > 100 µM
OVCAR-8 ovarian
  TGI: > 100 µM
SF-295 CNS
  TGI: > 100 µM
TK-10 renal
  TGI: > 100 µM
UACC-257 melanoma
  TGI: > 100 µM
UO-31 renal
  TGI: > 100 µM

## C[Si](C)(C)c1ccc(-c2sc(-c3ccc([Si](C)(C)C)s3)c3c2C[Si]2(C3)Cc3c(-c4ccc([Si](C)(C)C)s4)sc(-c4ccc([Si](C)(C)C)s4)c3C2)s1
HL-60(TB) leukemia
  TGI: > 100 µM
K-562 leukemia
  TGI: > 100 µM
LOX IMVI melanoma
  TGI: > 100 µM
NCI-H460 lung
  TGI: > 100 µM
OVCAR-8 ovarian
  TGI: > 100 µM
SF-295 CNS
  TGI: > 100 µM
TK-10 renal
  TGI: > 100 µM
UACC-257 melanoma
  TGI: > 100 µM
UO-31 renal
  TGI: > 100 µM

## Cc1[nH]c2ccccc2c1C1Cc2ccccc2N1C(=O)/C=C/C(=O)O (configuration not stated)
HL-60(TB) leukemia
  TGI: > 100 µM
K-562 leukemia
  TGI: > 100 µM
LOX IMVI melanoma
  TGI: > 100 µM
NCI-H460 lung
  TGI: 61.3 µM
OVCAR-8 ovarian
  TGI: > 100 µM
SF-295 CNS
  TGI: > 100 µM
TK-10 renal
  TGI: > 100 µM
UACC-257 melanoma
  TGI: > 100 µM
UO-31 renal
  TGI: > 100 µM

## Cc1ccc(C)c(NC(=O)CC/C(=N\NC(=O)c2c(O)ccc3ccccc23)C(C)C(=O)c2ccc(O)cc2)c1 (configuration not stated)
HL-60(TB) leukemia
  TGI: > 100 µM
K-562 leukemia
  TGI: > 100 µM
LOX IMVI melanoma
  TGI: 39.6 µM
NCI-H460 lung
  TGI: > 100 µM
OVCAR-8 ovarian
  TGI: 75.9 µM
SF-295 CNS
  TGI: > 100 µM
TK-10 renal
  TGI: > 100 µM
UACC-257 melanoma
  TGI: 87.1 µM
UO-31 renal
  TGI: > 100 µM

## O=CC1CCCc2ccccc21 (configuration not stated)
HL-60(TB) leukemia
  TGI: > 100 µM
K-562 leukemia
  TGI: > 100 µM
LOX IMVI melanoma
  TGI: > 62.4 µM
NCI-H460 lung
  TGI: > 100 µM
OVCAR-8 ovarian
  TGI: > 100 µM
SF-295 CNS
  TGI: > 100 µM
TK-10 renal
  TGI: > 100 µM
UACC-257 melanoma
  TGI: > 100 µM
UO-31 renal
  TGI: > 100 µM

## Cc1cc(Cl)ccc1NC(=O)CC/C(CC(=O)C(C)C)=N\NC(=O)C[n+]1ccccc1
HL-60(TB) leukemia
  TGI: > 100 µM
K-562 leukemia
  TGI: > 100 µM
LOX IMVI melanoma
  TGI: > 100 µM
NCI-H460 lung
  TGI: > 100 µM
OVCAR-8 ovarian
  TGI: > 100 µM
SF-295 CNS
  TGI: > 100 µM
TK-10 renal
  TGI: > 100 µM
UACC-257 melanoma
  TGI: > 100 µM
UO-31 renal
  TGI: > 100 µM

## COC(=O)CCC(NC(=S)N/N=C/c1ccco1)C(=O)OC (configuration not stated)
HL-60(TB) leukemia
  TGI: > 100 µM
K-562 leukemia
  TGI: > 100 µM
LOX IMVI melanoma
  TGI: > 100 µM
NCI-H460 lung
  TGI: > 100 µM
OVCAR-8 ovarian
  TGI: > 100 µM
SF-295 CNS
  TGI: > 100 µM
TK-10 renal
  TGI: > 100 µM
UACC-257 melanoma
  TGI: > 100 µM
UO-31 renal
  TGI: > 100 µM

## COc1ccc(C(=O)C(c2ccc(OC)cc2)C2(O)C(=O)Nc3c2ccc(Cl)c3C)cc1 (configuration not stated)
HL-60(TB) leukemia
  TGI: > 100 µM
K-562 leukemia
  TGI: > 100 µM
LOX IMVI melanoma
  TGI: > 100 µM
NCI-H460 lung
  TGI: > 100 µM
OVCAR-8 ovarian
  TGI: > 100 µM
SF-295 CNS
  TGI: > 100 µM
TK-10 renal
  TGI: > 100 µM
UACC-257 melanoma
  TGI: > 100 µM
UO-31 renal
  TGI: > 100 µM

## N#CC(c1nc2ccccc2nc1Cl)S(=O)(=O)c1ccccc1 (configuration not stated)
HL-60(TB) leukemia
  TGI: > 100 µM
K-562 leukemia
  TGI: > 100 µM
LOX IMVI melanoma
  TGI: > 100 µM
NCI-H460 lung
  TGI: > 100 µM
OVCAR-8 ovarian
  TGI: > 100 µM
TK-10 renal
  TGI: > 100 µM
UACC-257 melanoma
  TGI: > 100 µM
UO-31 renal
  TGI: > 100 µM

## [N-]=[N+]=NC(CI)c1cn([C@H]2C[C@H](O)[C@@H](CO)O2)c(=O)[nH]c1=O (some centres not stated)
HL-60(TB) leukemia
  TGI: > 100 µM
K-562 leukemia
  TGI: > 100 µM
LOX IMVI melanoma
  TGI: > 100 µM
NCI-H460 lung
  TGI: > 100 µM
OVCAR-8 ovarian
  TGI: > 100 µM
SF-295 CNS
  TGI: > 100 µM
TK-10 renal
  TGI: > 100 µM
UO-31 renal
  TGI: > 100 µM

## CCc1cccc(C)c1NC(=O)C(=O)Cc1nc2ccccc2s1
HL-60(TB) leukemia
  TGI: > 100 µM
K-562 leukemia
  TGI: > 100 µM
NCI-H460 lung
  TGI: > 100 µM
OVCAR-8 ovarian
  TGI: > 100 µM
SF-295 CNS
  TGI: > 100 µM
TK-10 renal
  TGI: > 100 µM
UACC-257 melanoma
  TGI: > 100 µM
UO-31 renal
  TGI: > 100 µM

## O=C(c1ccccc1)c1cccc(C(=O)c2ccccc2)c1
K-562 leukemia
  TGI: > 100 µM
LOX IMVI melanoma
  TGI: > 100 µM
NCI-H460 lung
  TGI: > 100 µM
OVCAR-8 ovarian
  TGI: > 100 µM
SF-295 CNS
  TGI: > 100 µM
TK-10 renal
  TGI: > 100 µM
UACC-257 melanoma
  TGI: > 100 µM
UO-31 renal
  TGI: > 100 µM

## O=c1c2ccccc2nc(-c2ccccc2)n1NC1OC(CO)C(O)C(O)C1O (configuration not stated)
HL-60(TB) leukemia
  TGI: > 100 µM
K-562 leukemia
  TGI: > 100 µM
NCI-H460 lung
  TGI: > 100 µM
OVCAR-8 ovarian
  TGI: > 100 µM
SF-295 CNS
  TGI: > 100 µM
TK-10 renal
  TGI: > 100 µM
UACC-257 melanoma
  TGI: > 100 µM
UO-31 renal
  TGI: > 100 µM

## CCOC(=O)NC(=O)c1cn(CCCCCCOC(=O)NCCCCCCNC(=O)OCCCCCCn2cc(C(=O)NC(=O)OCC)c(=O)[nH]c2=O)c(=O)[nH]c1=O
HL-60(TB) leukemia
  TGI: > 100 µM
K-562 leukemia
  TGI: > 100 µM
LOX IMVI melanoma
  TGI: > 100 µM
NCI-H460 lung
  TGI: > 100 µM
OVCAR-8 ovarian
  TGI: > 100 µM
SF-295 CNS
  TGI: > 100 µM
UACC-257 melanoma
  TGI: > 100 µM
UO-31 renal
  TGI: > 100 µM

## COc1ccc2ccccc2c1C1OC(=O)c2ccccc21 (configuration not stated)
HL-60(TB) leukemia
  TGI: > 100 µM
K-562 leukemia
  TGI: > 100 µM
LOX IMVI melanoma
  TGI: > 100 µM
OVCAR-8 ovarian
  TGI: > 100 µM
SF-295 CNS
  TGI: > 100 µM
TK-10 renal
  TGI: > 100 µM
UACC-257 melanoma
  TGI: > 100 µM
UO-31 renal
  TGI: > 100 µM

## CC(C)c1cccc2sc(NC(=O)C(=O)C(C#N)c3cccc4ccccc34)nc12 (configuration not stated)
HL-60(TB) leukemia
  TGI: > 100 µM
NCI-H460 lung
  TGI: > 100 µM
OVCAR-8 ovarian
  TGI: > 100 µM
SF-295 CNS
  TGI: > 100 µM
TK-10 renal
  TGI: > 100 µM
UACC-257 melanoma
  TGI: > 100 µM
UO-31 renal
  TGI: > 100 µM

## C/C(CC(=O)Nc1ccc(Cl)cc1)=N\NC(N)=S
HL-60(TB) leukemia
  TGI: > 100 µM
K-562 leukemia
  TGI: > 100 µM
LOX IMVI melanoma
  TGI: > 100 µM
NCI-H460 lung
  TGI: > 100 µM
OVCAR-8 ovarian
  TGI: > 100 µM
SF-295 CNS
  TGI: > 100 µM
TK-10 renal
  TGI: > 100 µM
UACC-257 melanoma
  TGI: > 100 µM

## COc1ccc(/C=N/N=C(\N)NO)c(OC)c1
K-562 leukemia
  TGI: > 100 µM
LOX IMVI melanoma
  TGI: > 100 µM
OVCAR-8 ovarian
  TGI: > 100 µM
SF-295 CNS
  TGI: 70.7 µM
UACC-257 melanoma
  TGI: > 100 µM
UO-31 renal
  TGI: > 100 µM

## COC(=O)c1cc(Cl)ccc1NC(=O)c1ccc([N+](=O)[O-])cc1
HL-60(TB) leukemia
  TGI: > 100 µM
K-562 leukemia
  TGI: > 100 µM
NCI-H460 lung
  TGI: > 100 µM
OVCAR-8 ovarian
  TGI: 63.9 µM
SF-295 CNS
  TGI: 6.1 µM
TK-10 renal
  TGI: 40.6 µM
UACC-257 melanoma
  TGI: > 100 µM
UO-31 renal
  TGI: 38.7 µM
